# Experimental data: patent publication US20110262567A1, “COMPOSITION FOR TREATING GOUT, CONTAINING ANGELICA GIGAS EXTRACT HAVING A XANTHINE OXIDASE-INHIBITING EFFECT AND AN INFLAMMATION-INDUCING ENZYME-INHIBITING EFFECT” (KOREA BIO HEALTH CO., LTD., priority 2008, published 2011)
# Assays:
# xanthine oxidase = xanthine oxidase (Homo sapiens, UniProt P47989); experiment: Test on xanthine oxidase inhibition; format: biochemical
# Experimental: In this experiment, xanthine was used as a substrate and xanthine oxidase was used as an enzyme to perform an enzyme-substrate reaction.
# 250 μl of 50 mM potassium phosphate buffer (pH 7.5), 385 μl of Angelica gigas Nakai extract solution (prepared by dilution with 50 mM potassium phosphate buffer (pH 7.5) until the final concentrations of decursin and decursinol angelate become 1, 5, 10, 17.5, 20, 50 μg/ml), and 330 μl of xanthine solution were mixed with each other to prepare a reaction solution.
# 35 μl of xanthine oxidase solution (final concentration of 0.4 U/ml) was added to the reaction solution, and reacted in a 37° C. incubator for 15 min. Then, absorbance (Ab) was measured at 295 nm.
# Each reaction solution was also prepared using each Angelica gigas Nakai extract (each final concentration of decursin and decursinol angelate was 1, 5, 10, 17.5, 20, or 50 μg/ml) without addition of the xanthine oxidase solution. Further, in the absence of the Angelica gigas Nakai extract, each reaction solution was prepared with or without the xanthine oxidase solution. […]
# A: a change in absorbance in the absence of composition (Absorbance with enzyme−Absorbance without enzyme)
# B: a change in absorbance in the presence of composition (Absorbance with enzyme−Absorbance without enzyme)
# Cox-2 = experiment: Inflammation inhibition in hepatocytes of gout-induced animal model (Cox-2 western blot of liver); format: in vivo; conditions: rat, 50 mg/kg oral for 3 days after potassium oxonate; compared to hyperuricemia control group (model control)
# Experimental: In order to confirm the inhibitory effect of the Angelica gigas Nakai extract of the present invention on the inflammation-inducing enzyme Cox-2, the uricase inhibitor, potassium oxonate was administered to induce hyperuricemia.
# As the experimental animal, 9-week old male sprague-dawley rats (250-280 g, Samtako, Inc.) were acclimated in a SPF chamber where the humidity and temperature were maintained at 50±5% and 24˜26° C. and feed and water were supplied ad libitum for 1 week, and then used for the experiment.
# In the present experiment, the uricase inhibitor, potassium oxonate (150 mg/kg) was intraperitoneally administered one day before sample treatment, so as to induce hyperuricemia. The contents of uric acid before and after administration of potassium oxonate were measured and compared to each other, in order to confirm the hyperuricemia induction by administration of potassium oxonate.
# Potassium oxonate was suspended in 0.5% sodium carboxymethylcellulose (CMC-Na, 0.5% CMC with 0.1 M sodium acetate (pH5)), and used. […]
# After oral administration for 3 days, the experimental animals were fasted overnight, and then anesthetized with dry ice. […] 100 mg was dissected from the whole liver, and proteins were separated using a cell lysis buffer, and the protein concentration was measured by BCA protein assay. […]
# Chain of xanthine oxidase (P47989 whole entry, species assumed): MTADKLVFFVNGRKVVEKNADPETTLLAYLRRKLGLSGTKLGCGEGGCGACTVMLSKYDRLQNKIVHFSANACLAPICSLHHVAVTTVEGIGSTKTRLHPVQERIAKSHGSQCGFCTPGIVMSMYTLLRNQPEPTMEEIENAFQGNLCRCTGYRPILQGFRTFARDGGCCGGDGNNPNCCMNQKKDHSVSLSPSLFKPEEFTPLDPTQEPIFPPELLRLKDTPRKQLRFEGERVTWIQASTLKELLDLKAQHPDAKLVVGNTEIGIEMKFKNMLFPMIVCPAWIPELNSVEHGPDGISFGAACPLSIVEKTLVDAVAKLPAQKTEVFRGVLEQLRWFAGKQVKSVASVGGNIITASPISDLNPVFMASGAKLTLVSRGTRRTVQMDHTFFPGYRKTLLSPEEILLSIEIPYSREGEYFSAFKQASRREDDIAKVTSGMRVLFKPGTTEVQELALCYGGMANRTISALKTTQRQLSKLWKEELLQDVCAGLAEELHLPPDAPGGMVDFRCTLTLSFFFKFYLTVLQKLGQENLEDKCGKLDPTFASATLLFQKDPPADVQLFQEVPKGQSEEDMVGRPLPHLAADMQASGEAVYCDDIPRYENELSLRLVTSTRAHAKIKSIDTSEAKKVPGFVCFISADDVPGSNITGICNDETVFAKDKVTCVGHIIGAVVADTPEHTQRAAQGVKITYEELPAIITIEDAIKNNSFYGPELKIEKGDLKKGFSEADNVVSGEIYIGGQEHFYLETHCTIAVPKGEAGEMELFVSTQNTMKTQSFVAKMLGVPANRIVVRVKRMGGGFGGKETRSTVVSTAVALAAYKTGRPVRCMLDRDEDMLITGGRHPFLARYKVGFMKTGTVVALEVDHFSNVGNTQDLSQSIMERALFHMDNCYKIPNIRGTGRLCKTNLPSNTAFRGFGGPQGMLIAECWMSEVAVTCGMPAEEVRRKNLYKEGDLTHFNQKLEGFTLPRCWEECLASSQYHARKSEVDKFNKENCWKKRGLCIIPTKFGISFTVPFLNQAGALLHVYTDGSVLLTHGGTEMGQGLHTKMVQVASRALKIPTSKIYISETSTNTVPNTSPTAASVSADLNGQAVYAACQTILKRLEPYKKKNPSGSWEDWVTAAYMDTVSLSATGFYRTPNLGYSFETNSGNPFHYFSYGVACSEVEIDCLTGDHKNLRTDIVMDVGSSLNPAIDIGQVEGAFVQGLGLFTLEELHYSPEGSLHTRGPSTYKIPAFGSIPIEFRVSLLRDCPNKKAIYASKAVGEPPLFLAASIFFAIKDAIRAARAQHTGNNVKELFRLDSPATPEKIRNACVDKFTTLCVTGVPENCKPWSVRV
structure (smiles),measurement,setting,value
Oc1ncnc2[nH]ncc12 [allopurinol],IC90,xanthine oxidase,38 µg/mL
same,Cox-2 expression in the hepatic tissue,Cox-2,adversely increased
